Reference: patent US8481576B2 (Abbott GmbH & Co. KG, priority 2004, dated 2013)
Structures can show the parent of a compound that is named as a salt.

Target: T1, h5-HT5A receptor (Homo sapiens, UniProt P47898)
T1 construct: expressed in transfected cells; host or cells: HEK293
Test: [3H]5-CT binding assay h5-HT5A
Details: membranes from HEK293 cells expressing h5-HT5A, 2.5 nM [3H]5-CT; read-out: Binding affinity 5-HT5A (Ki)
Experimental: 1. [^3H]5-CT binding assay h5-HT5A
Membranes from HEK293-cells, which permanently express the h5-HT5A receptor gene, were incubated in 100 mM Tris-HCl-buffer (pH 7.7), containing 1 mM EDTA in the presence of 2.5 nM [^3H]5-CT (600 μl total volume). The total binding is defined as the binding which is observed when the membranes are incubated alone in the presence of the radioligand. The inhibition induced by the compound is determined by incubation of cell membranes in the presence of the radioligand, and of different concentrations of the compound of interest. Unspecific binding is defined by the binding of [^3H]5-CT, which is obtained by incubation of the membranes as for the total binding but in the presence of 10 μM methiothepine. Following an incubation of 75 minutes at 30° C. the membrane suspension is filtered through GF/B-filters, wrapped in 0.03% PEI, wherein a Skatron® harvest system is used. The radioactivity retained in the filter is quantified by liquid scintillation counting.
In both assays, different concentrations of the test substances are used, and the Ki or the IC50 values are determined.

T1 sequence (P47898 whole entry): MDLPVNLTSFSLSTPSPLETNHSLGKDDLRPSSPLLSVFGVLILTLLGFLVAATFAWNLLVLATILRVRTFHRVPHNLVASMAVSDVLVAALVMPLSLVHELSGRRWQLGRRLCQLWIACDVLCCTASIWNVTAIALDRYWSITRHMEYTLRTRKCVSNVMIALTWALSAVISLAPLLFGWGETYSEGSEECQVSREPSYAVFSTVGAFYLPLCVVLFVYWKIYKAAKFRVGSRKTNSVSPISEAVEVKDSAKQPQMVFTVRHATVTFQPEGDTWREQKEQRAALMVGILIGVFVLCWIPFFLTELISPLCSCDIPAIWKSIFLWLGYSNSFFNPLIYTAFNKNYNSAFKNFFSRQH

Ki, 50 to 500 nM:
COc1ccccc1CNC(=N)Nc1nc(-c2ccccc2C(F)(F)F)cs1 [Example 103, N-(2-methoxybenzyl)-N′-{4-[2-(trifluoromethyl)phenyl]-1,3-thiazole-2-yl}guanidine]
COc1ccccc1CNC(=N)Nc1nc2ccc(C)cc2s1 [Example 168, N-(2-methoxybenzyl)-N′-(6-methyl-1,3-benzothiazole-2-yl)guanidine fumarate]
CCN(CC)c1ccc(-c2csc(NC(=N)NCc3c(OC)cccc3OC)n2)cc1 [Example 62, N-{4-[4-(diethylamino)phenyl]-1,3-thiazole-2-yl}-N′-(2,6-dimethoxybenzyl)guanidine]
COc1ccc(F)cc1CNC(=N)Nc1nc(C)cs1 [Example 130, N-(5-fluoro-2-methoxybenzyl)-N′-(4-methyl-1,3-thiazole-2-yl)guanidine fumarate]
COc1cccc(OC)c1CNC(=N)Nc1nnc(-c2ccccc2)s1 [Example 176, N-(2,6-dimethoxybenzyl)-N′-(5-phenyl-1,3,4-thiadiazole-2-yl)guanidine]
COc1ccccc1CNC(=N)Nc1nc(-c2ccc3c(c2)OCO3)cs1 [Example 101, N-[4-(1,3-benzodioxol-5-yl)-1,3-thiazole-2-yl]-N′-(2-methoxybenzyl)guanidine]
COc1ccccc1CNC(=N)Nc1nc(-c2ccccc2F)cs1 [Example 98, N-[4-(2-fluorophenyl)-1,3-thiazole-2-yl]-N′-(2-methoxybenzyl)guanidine]
COc1cccc(OC)c1CNC(=N)Nc1nc(-c2ccc(Cl)cc2)cs1 [Example 38, N-[4-(4-chlorophenyl)-1,3-thiazole-2-yl]-N′-(2,6-dimethoxybenzyl)guanidine]
COc1ccccc1CNC(=N)Nc1cc(C(C)(C)C)[nH]n1 [Example 200, N-(5-tert-butyl-1H-pyrazole-3-yl)-N′-(2-methoxy-benzyl)-guanidine]

Ki, > 500 nM:
CCNC(=Nc1nccs1)NCc1ccccc1OC [Example 26, N-ethyl-N′-(2-methoxybenzyl)-N″-1,3-thiazole-2-ylguanidine (2E)-But-2-endioate]
COc1ccccc1CN=C(N)Nc1nc(-c2ccccc2)ns1 [Example 106, N″-(2-methoxybenzyl)-N-(3-phenyl-1,2,4-thiadiazole-5-yl)guanidine (2E)-But-2-endioate]
N=C(NCc1cccc(Cl)c1)Nc1nccs1 [Example 13, N-(3-chlorobenzyl)-N′-1,3-thiazole-2-ylguanidine hydrochloride]
COc1ccccc1CNC(=N)Nc1n[nH]cc1-c1ccccc1 [Example 217, N-(2-methoxybenzyl)-N′-(4-phenyl-1H-pyrazole-3-yl)guanidine]
CC(=O)Nc1cccc(OCCCNC(=N)Nc2nccs2)c1 [Example 22, N-[3-(3-{[imino(1,3-thiazole-2-ylamino)methyl]amino}propoxy)phenyl]acetamide]

Ki, < 50 nM:
C=CCNC(=O)c1csc(NC(=N)NCc2c(OC)cccc2OC)n1 [Example 193, N-allyl-2-{[[(2,6-dimethoxybenzyl)amino](imino)methyl]amino}-1,3-thiazole-4-carboxamide]
COc1cccc(OC)c1CNC(=N)Nc1nc(-c2ncc(Cl)cc2Cl)cs1 [Example 126, N-[4-(3,5-dichloropyridine-2-yl)-1,3-thiazole-2-yl]-N′-(2,6-dimethoxybenzyl)guanidine]
COc1cccc(OC)c1CNC(=N)Nc1nc(-c2ccc(NS(C)(=O)=O)cc2)cs1 [Example 71, N-[4-(2-{[[(2,6-dimethoxybenzyl)amino](imino)methyl]amino}-1,3-thiazole-4-yl)phenyl]methanesulfonamide hydrobromide]
COc1ccc(-c2cc(NC(=N)NCc3c(OC)cccc3OC)n[nH]2)cc1 [Example 209, N-(2,6-dimethoxybenzyl)-N′-[5-(4-methoxyphenyl)-1H-pyrazole-3-yl]guanidine]
COc1cccc(OC)c1CNC(=N)Nc1nc(-c2cc(C)cs2)cs1 [Example 121, N-(2,6-dimethoxybenzyl)-N′-[4-(4-methyl-2-thienyl)-1,3-thiazole-2-yl]guanidine]
COc1cccc(OC)c1CNC(=N)Nc1nc(-c2ccc(F)c(F)c2)cs1 [Example 87, N-[4-(3,4-difluorophenyl)-1,3-thiazole-2-yl]-N′-(2,6-dimethoxybenzyl)guanidine hydrobromide]
COc1cccc(OC)c1CNC(=N)Nc1nc(-c2ccc(F)cc2Cl)cs1 [Example 116, N-[4-(2-chloro-4-fluorophenyl)-1,3-thiazole-2-yl]-N′-(2,6-dimethoxybenzyl)guanidine]
COc1cccc(OC)c1CNC(=N)Nc1nc(-c2cccs2)cs1 [Example 90, N-(2,6-dimethoxybenzyl)-N′-[4-(2-thienyl)-1,3-thiazole-2-yl]guanidine hydrobromide]
COc1cccc(OC)c1CNC(=N)Nc1nc(Cc2ccc(F)cc2)cs1 [Example 143, N-(2,6-dimethoxybenzyl)-N′-[4-(4-fluorobenzyl)-1,3-thiazole-2-yl]guanidine]
COc1cccc(OC)c1CNC(=N)Nc1nc(-c2ccc(F)cc2F)cs1 [Example 91, N-[4-(2,4-difluorophenyl)-1,3-thiazole-2-yl]-N′-(2,6-dimethoxybenzyl)guanidine hydrobromide]
COc1cccc(C)c1CNC(=N)Nc1nc(-c2ncccn2)cs1 [Example 139, N-(2-methoxy-6-methylbenzyl)-N′-(4-pyrimidine-2-yl-1,3-thiazole-2-yl)guanidine]
COc1ccc(F)cc1-c1csc(NC(=N)NCc2c(OC)cccc2OC)n1 [Example 112, hydrobromide]
COc1cccc(OC)c1CNC(=N)Nc1nc(C2CCCN2C)cs1 (stereo not drawn) [Example 149, N-(2,6-dimethoxybenzyl)-N′-[4-(1-methylpyrrolidine-2-yl)-1,3-thiazole-2-yl]guanidine]
COc1cccc(OC)c1CNC(=N)Nc1ccn(-c2ccccc2)n1 [Example 219, N-(2,6-dimethoxybenzyl)-N′-(1-phenyl-1H-pyrazole-3-yl)guanidine]
COc1cccc(OC)c1CNC(=N)Nc1nc(-c2ccc(OC(F)(F)F)cc2)cs1 [Example 64, N-(2,6-dimethoxybenzyl)-N′-{4-[4-(trifluoromethoxy)phenyl]-1,3-thiazole-2-yl}guanidine hydrobromide]
COc1cccc(OC)c1CNC(=N)Nc1nc(-c2ccc(F)cc2)cs1 [Example 56, N-(2,6-dimethoxybenzyl)-N′-[4-(4-fluorophenyl)-1,3-thiazole-2-yl]guanidine]
COc1ccccc1CNC(=N)Nc1nc(C)c(C)s1 [Example 40]
COc1ccccc1CNC(=N)Nc1nc(-c2ccc(F)cc2)co1 [Example 198, N-[4-(4-fluorophenyl)-1,3-oxazole-2-yl]-N′-(2-methoxybenzyl)guanidine]
COc1ccccc1CNC(=N)Nc1cc(-c2ccc(Cl)cc2)[nH]n1 [Example 211, N-[5-(4-chlorophenyl)-1H-pyrazole-3-yl]-N′-(2-methoxybenzyl)guanidine]
COc1cccc(OC)c1CNC(=N)Nc1nc(-c2ccccc2C(F)(F)F)cs1 [Example 84, N-(2,6-dimethoxybenzyl)-N′-{4-[2-(trifluoromethyl)phenyl]-1,3-thiazole-2-yl}guanidine hydrobromide]
COc1cccc(OC)c1CNC(=N)Nc1nc(C)c(C)o1 [Example 174, N-(2,6-dimethoxybenzyl)-N′-(4,5-dimethyl-1,3-oxazole-2-yl)guanidine acetate]
COc1cccc(OC)c1CNC(=N)Nc1nc(-c2ccco2)cs1 [Example 117, N-(2,6-dimethoxybenzyl)-N′-[4-(2-furyl)-1,3-thiazole-2-yl]guanidine hydrobromide]
COc1cccc(OC)c1CNC(=N)Nc1cc(-c2ccc(C)cc2)[nH]n1 [Example 207, N-(2,6-dimethoxybenzyl)-N′-[5-(4-methylphenyl)-1H-pyrazole-3-yl]guanidine]
COc1cccc(OC)c1CNC(=N)Nc1nc(-c2c(Cl)cccc2Cl)cs1 [Example 119, N-[4-(2,6-dichlorophenyl)-1,3-thiazole-2-yl]-N′-(2,6-dimethoxybenzyl)guanidine]
COc1cccc(OC)c1CNC(=N)Nc1nc(-c2ccccc2F)cs1 [Example 70, N-(2,6-dimethoxybenzyl)-N′-[4-(2-fluorophenyl)-1,3-thiazole-2-yl]guanidine hydrobromide]
COc1cccc(OC)c1CNC(=N)Nc1nc(-c2ncc(F)cc2F)cs1 [Example 145, N-[4-(3,5-difluoropyridine-2-yl)-1,3-thiazole-2-yl]-N′-(2,6-dimethoxybenzyl)guanidine]
COc1ccccc1CNC(=N)Nc1cc(-c2ccccc2)[nH]n1 [Example 201, N-(2-methoxybenzyl)-N′-(5-phenyl-1H-pyrazole-3-yl)guanidine]
COc1ccc(-c2cc(NC(=N)NCc3ccccc3OC)n[nH]2)cc1 [Example 208, N-(2-methoxybenzyl)-N′-[5-(4-methoxyphenyl)-1H-pyrazole-3-yl]guanidine]
